Tests used:
c-Met [1] = biological target: T1, c-Met (Homo sapiens, UniProt P08581); assay: cell-free Z-LYTE Tyr6 peptide kinase assay, dose-response; type: biochemical
c-Met [2] = biological target: T1, c-Met; assay: cell-free Z-LYTE Tyr6 peptide kinase assay, positive control measured by the authors; type: biochemical

T1 sequence (P08581 25-307): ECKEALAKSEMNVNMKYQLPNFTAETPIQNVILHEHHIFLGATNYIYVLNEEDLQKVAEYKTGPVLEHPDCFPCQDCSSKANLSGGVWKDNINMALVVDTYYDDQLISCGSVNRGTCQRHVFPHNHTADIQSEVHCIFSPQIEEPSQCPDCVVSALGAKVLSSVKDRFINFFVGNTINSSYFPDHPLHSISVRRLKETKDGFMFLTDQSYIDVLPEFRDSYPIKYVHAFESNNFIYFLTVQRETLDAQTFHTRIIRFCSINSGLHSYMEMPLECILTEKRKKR
T1 sequence (P08581 308-1390): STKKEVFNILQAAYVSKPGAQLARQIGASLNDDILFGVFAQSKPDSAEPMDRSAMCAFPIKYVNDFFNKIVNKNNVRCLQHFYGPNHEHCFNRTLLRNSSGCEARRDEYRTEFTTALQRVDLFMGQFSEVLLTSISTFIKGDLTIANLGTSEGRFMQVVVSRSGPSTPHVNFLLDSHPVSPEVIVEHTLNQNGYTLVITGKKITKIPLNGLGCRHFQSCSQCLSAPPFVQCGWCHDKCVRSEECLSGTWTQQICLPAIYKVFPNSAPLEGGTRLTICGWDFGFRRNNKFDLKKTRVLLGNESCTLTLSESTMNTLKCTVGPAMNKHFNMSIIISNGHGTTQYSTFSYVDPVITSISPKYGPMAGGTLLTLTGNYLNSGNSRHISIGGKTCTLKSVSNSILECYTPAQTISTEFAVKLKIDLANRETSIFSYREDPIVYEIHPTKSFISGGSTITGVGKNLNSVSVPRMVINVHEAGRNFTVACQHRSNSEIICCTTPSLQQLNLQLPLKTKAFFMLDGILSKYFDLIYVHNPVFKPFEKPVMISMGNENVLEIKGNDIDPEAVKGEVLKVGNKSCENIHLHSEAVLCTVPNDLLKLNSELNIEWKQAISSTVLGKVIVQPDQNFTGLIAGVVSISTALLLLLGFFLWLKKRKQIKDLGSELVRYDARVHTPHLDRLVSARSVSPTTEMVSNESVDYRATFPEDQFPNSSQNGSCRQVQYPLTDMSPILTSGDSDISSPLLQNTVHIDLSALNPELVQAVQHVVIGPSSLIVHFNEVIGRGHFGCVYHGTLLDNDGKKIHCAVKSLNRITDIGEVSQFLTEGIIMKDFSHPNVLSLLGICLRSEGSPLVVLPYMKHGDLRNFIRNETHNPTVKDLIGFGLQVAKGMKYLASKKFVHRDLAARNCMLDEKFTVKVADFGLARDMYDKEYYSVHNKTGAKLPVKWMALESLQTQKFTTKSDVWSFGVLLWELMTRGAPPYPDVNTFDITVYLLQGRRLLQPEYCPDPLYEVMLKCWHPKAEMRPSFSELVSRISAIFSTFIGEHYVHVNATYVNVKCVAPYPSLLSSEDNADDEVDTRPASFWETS

IC50 (c-Met [1]) | Structure (SMILES) | IC50 (c-Met [2])
19.9 µM | O[C@]12CCCCCC[C@@H]3CCN4CCC[C@](O)(CCCCCC[C@@H]5CCN(CCC1)[C@H]2O5)[C@@H]4O3 [ARG C, Araguspongine C] | –
– | C/C=C(/C=O)[C@@H](CC=O)CC(=O)OCCc1ccc(O)cc1 [OC, (−)-Oleocanthal] | 5 µM

Reference: paper PMC4306938, “Araguspongine C Induces Autophagic Death in Breast Cancer Cells through Suppression of c-Met and HER2 Receptor Tyrosine Kinase Signaling” (Marine Drugs, 2015)
